Source: patent publication US20250034216A1, “STEREOSELECTIVE COVALENT LIGANDS FOR ONCOGENIC AND IMMUNOLOGICAL PROTEINS” (The Scripps Research Institute, priority 2021, published 2025)

Legend:
Assay in all cases: IA-DTB cysteine engagement
Type in all cases: binding
Conditions in all cases: 22Rv1 cells, 20 μM probe, 1 h, relative to DMSO
PTGES2_C110 = target: T1, PTGES2_C110 (Homo sapiens, UniProt Q9H7Z7)
T1 construct: endogenous in cells; host or cells: 22Rv1
Procedure: (§1) Sample preparation: Cells (adherent: 15 cm dishes, suspension: 2 million cells/mL) were treated with electrophilic probes in situ for indicated times and concentrations, washed with ice-cold PBS, and flash frozen in liquid nitrogen. Cell pellets were lysed by sonication (8 pulses, 40% power) in 500 μL ice-cold PBS supplemented with cOmplete protease inhibitors (1 tablet/10 mL of PBS). Whole cell lysates protein content was measured using a standard DC protein assay (Bio-Rad) and 500 μL (2 mg/mL protein content) were treated with 5 μL of 10 mM 1A-DTB (in DMSO) for 1 h at ambient temperature with occasional vortexing. Samples were methanol-chloroform precipitated with the addition of 500 μL ice-cold MeOH and 200 μL CHCl3, vortexed, and centrifuged (10 min, 10,000 g). Without disrupting the protein disk, both top and bottom layers were aspirated and the protein disk was washed with 1 mL ice-cold MeOH and centrifuged (10 min, 10,000 g). The pellets were allowed to air dry, and then re-suspended in 90 μL buffer (9 M urea, 10 mM DTT, 50 mM TEAB pH 8.5). Samples were reduced by heating at 65 C for 20 minutes and water bath sonicated as needed to resuspend the protein pellets, followed by alkylation via addition of 10 μL (500 mM) iodoacetamide and incubated at 37 C for 30 min with shaking. Samples were briefly centrifuged, and probe sonicated once more to ensure complete resuspension, and then diluted with 300 μL buffer (50 mM TEAB pH 8.5) to reach final concentration of 2 M urea. Trypsin (4 μL of 0.25 μg/μL in trypsin resuspension buffer with 25 mM CaCl2)) was added to each sample and digested at 37 C for 2 h to overnight. Digested samples were then diluted with 300 μL wash buffer (50 mM TEAB pH 8.5, 150 mM NaCl, 0.2% NP-40) containing streptavidin-agarose beads (50 μL of 50% slurry in wash buffer) and were rotated at room temperature for 2 hours. Enriched samples were pelleted by centrifugation (2000 g, 2 min) and transferred to BioSpin columns and washed (3×1 mL wash buffer, 3×1 mL PBS, 3×1 mL water). Enriched peptides were eluted by 300 μL 50% acetonitrile with 0.1% formic acid and eluate was evaporated to dryness via speedvac. IA-DTB labeled and enriched peptides were resuspended in 100 μL EPPS buffer (200 mM, pH 8.0) with 30% acetonitrile, vortexed, and water bath sonicated. Samples were TMT labeled with 3 μL of corresponding TMT tag (5 mg tag resuspended in 256 μL acetonitrile), vortexed, and incubated at room temperature for 1 hour. TMT labeling was quenched with the addition of hydroxylamine (5 μL 5% solution in H2O) and incubated for 15 minutes at room temperature. Samples were then acidified with 5 μL formic acid, combined and dried using a SpeedVac. Samples were desalted via Sep-Pak and then high pH fractionated.
(§2) Data processing: Cysteine engagement ratios (probe vs DMSO) were calculated for each peptide-spectra match by dividing each TMT reporter ion intensity by the average intensity for the channels corresponding to DMSO treatment. Peptide-spectra matches were then grouped based on protein ID and residue number (e.g., PSME1 C22), excluding peptides with summed reporter ion intensities for the DMSO channels <10,000, coefficient of variation for DMSO channels >0.5, and non-tryptic peptide sequences. TMT reporter ion intensities were normalized to the median summed signal intensity across channels.
(§3) Filtering of cysteine data: Replicates were combined based on cell line and treatment condition (probe, concentration, duration) by averaging cysteine engagement ratios across all experiments.

UNC13A_C999 = target: T2, UNC13A_C999 (Homo sapiens, UniProt Q9UPW8)
T2 construct: endogenous in cells; host or cells: 22Rv1
Procedure: as §1, §2, §3

SCAMP4_C20 = target: T3, SCAMP4_C20 (Homo sapiens, UniProt Q969E2)
T3 construct: endogenous in cells; host or cells: 22Rv1
T3 sequence (Q969E2 1-229): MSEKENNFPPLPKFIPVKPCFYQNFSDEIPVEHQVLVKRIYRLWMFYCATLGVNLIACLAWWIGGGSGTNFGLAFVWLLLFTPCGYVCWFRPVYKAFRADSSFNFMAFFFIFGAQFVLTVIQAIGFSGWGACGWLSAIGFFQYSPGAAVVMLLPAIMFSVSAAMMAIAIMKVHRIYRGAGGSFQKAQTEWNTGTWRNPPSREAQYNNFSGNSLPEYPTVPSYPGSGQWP
Procedure: as §1, §2, §3

NT5DC2_C504 = target: T4, NT5DC2_C504 (Homo sapiens, UniProt Q9H857)
T4 construct: endogenous in cells; host or cells: 22Rv1
T4 sequence (Q9H857 1-520): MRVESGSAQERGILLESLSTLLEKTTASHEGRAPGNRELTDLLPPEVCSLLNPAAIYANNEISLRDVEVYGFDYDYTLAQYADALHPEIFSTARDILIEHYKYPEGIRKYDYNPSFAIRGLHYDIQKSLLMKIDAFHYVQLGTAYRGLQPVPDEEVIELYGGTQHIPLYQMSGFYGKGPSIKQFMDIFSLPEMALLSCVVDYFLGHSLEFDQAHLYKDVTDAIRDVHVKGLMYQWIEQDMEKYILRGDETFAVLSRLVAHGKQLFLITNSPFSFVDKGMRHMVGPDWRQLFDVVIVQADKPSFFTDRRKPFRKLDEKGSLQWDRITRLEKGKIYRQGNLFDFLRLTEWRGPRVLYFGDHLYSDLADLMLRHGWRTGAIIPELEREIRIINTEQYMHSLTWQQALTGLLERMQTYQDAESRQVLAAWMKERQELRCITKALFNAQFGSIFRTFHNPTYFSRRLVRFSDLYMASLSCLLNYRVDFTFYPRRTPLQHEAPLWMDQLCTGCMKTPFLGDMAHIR
Procedure: as §1, §2, §3

T1 sequence (Q9H7Z7 whole entry): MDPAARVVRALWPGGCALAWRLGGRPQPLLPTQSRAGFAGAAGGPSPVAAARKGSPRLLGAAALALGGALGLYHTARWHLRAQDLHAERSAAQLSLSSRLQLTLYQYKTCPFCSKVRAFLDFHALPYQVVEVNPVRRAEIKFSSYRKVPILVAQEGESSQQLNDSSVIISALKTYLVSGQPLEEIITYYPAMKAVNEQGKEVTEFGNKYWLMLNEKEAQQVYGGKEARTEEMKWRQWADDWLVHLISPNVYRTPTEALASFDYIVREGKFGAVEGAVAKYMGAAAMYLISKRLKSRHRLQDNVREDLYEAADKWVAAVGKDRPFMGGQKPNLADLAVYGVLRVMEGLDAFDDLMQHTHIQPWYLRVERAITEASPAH

Structure (SMILES)	% engagement PTGES2_C110 (PTGES2_C110)	% engagement UNC13A_C999 (UNC13A_C999)	% engagement SCAMP4_C20 (SCAMP4_C20)	% engagement NT5DC2_C504 (NT5DC2_C504)
C=CC(=O)N1C[C@@H](c2ccc(Br)cc2)[C@H]1C(=O)Nc1cccc2cccnc12 [MY-1A, (2S,3R)-1-acryloyl-3-(4-bromophenyl)-N-(quinolin-8-yl)azetidine-2-carboxamide]	31.25%	54.5%	80%	85.5%
C=CC(=O)N1C[C@H](c2ccc(Br)cc2)[C@@H]1C(=O)Nc1cccc2cccnc12 [MY-1B, (2R,3S)-1-acryloyl-3-(4-bromophenyl)-N-(quinolin-8-yl)azetidine-2-carboxamide]	38.5%	100%	85.5%	75%
C=CC(=O)N1C[C@H](c2ccc(Br)cc2)[C@H]1C(=O)Nc1cccc2cccnc12 [MY-3A, (2S,3S)-1-acryloyl-3-(4-bromophenyl)-N-(quinolin-8-yl)azetidine-2-carboxamide]	69.75%	100%	72.5%	54.5%
C=CC(=O)N1C[C@H](c2ccc(Br)cc2)[C@H]1C(=O)Nc1cccc2cccnc12 [MY-3B, (2S,3S)-1-acryloyl-3-(4-bromophenyl)-N-(quinolin-8-yl)azetidine-2-carboxamide]	89.25%	23.5%	100%	59%
